Consider seven molecules from patent US8758825B2, “Sequestered antagonist formulations” (Purdue Pharma L.P., priority 2001, dated 2014).

The conditions of data set [1]: in comparison to a 15 mg dose of hydrocodone. An excerpt: In certain preferred embodiments, the opioid agonist is oxycodone or hydrocodone.
The conditions of data set [2]: cited from earlier work; for Duration of action: after oral doses.

With `COc1ccc2c3c1O[C@H]1[C@@H](O)C=C[C@H]4[C@@H](C2)N(C)CC[C@@]341` [Codeine], the “Equianalgesic dose, Calculated Dose” value in data set [1] is on record as 90.0 mg. On to `COc1ccc2c3c1OC1C(=O)CC[C@H]4[C@@H](C2)N(C)CC[C@]314` (stereo partly shown) [Hydrocodone, 4,5-epoxy-3-methoxy-17-methylmorphinan-6-one], for which the “Equianalgesic dose, Calculated Dose” value in data set [1] is 15.0 mg.

For `CN1CC[C@]23CCCC[C@H]2[C@H]1Cc1ccc(O)cc13` [Levorphanol], the “Equianalgesic dose, Calculated Dose” value in data set [1] is reported as 1.8 mg. Still for that read-out and setting: next, `CCC(=O)C(CC(C)N(C)C)(c1ccccc1)c1ccccc1` (stereo not shown) [Methadone]: 9.0 mg. Turning to `COc1ccc2c3c1O[C@H]1C(=O)CC[C@@]4(O)[C@@H](C2)N(C)CC[C@]314` [Oxycodone, 4,5-expoxy-14-hydroxy-3-methoxy-17-methylmorphinan-6-one], in data set [1], the “Equianalgesic dose, Calculated Dose” value is recorded as 13.5 mg. Regarding `C[C@H]1[C@H]2Cc3ccc(O)cc3[C@]1(C)CCN2CC1CC1` [cyclazocine], the Duration of action in data set [2] is approximately 24 h.

Regarding `O=C1CC[C@@]2(O)[C@H]3Cc4ccc(O)c5c4[C@@]2(CCN3CC2CC2)[C@H]1O5` [naltrexone], the Duration of action in data set [2] was approximately 24 h. In addition, the Protein binding entry in data set [2] (in vivo) is listed as “approximately 21%”. In addition, in data set [2] (oral administration), the Oral bioavailability is 5-40% and the Time of absorption is not above 1 h.
